Data on 23 compounds can be found in patent US4537886A, “β-lactam antibacterial agents and compositions containing them” (Beecham Group p.l.c., priority 1982, dated 1985).

The structures appear in SMILES notation. In brackets after ≈: the same amount, converted by molar mass. Where a name gives a salt, the structure may show the parent alone.

One assay has as its system E. coli NCTC 10418. Description: MIC against E. coli NCTC 10418. The assay is classed as cell-based. The settings on record: Escherichia coli, NCTC 10418 / NCTC 1048; E. coli NCTC 1048 as printed in Example 7; read-out: MIC against E. coli NCTC 1048.
In general, MIC refers to the lowest concentration found to suppress growth. Turning to `CCn1c(C)c(C(=O)N[C@@H](C(=O)N[C@@H]2C(=O)N3[C@@H]2SC(C)(C)[C@@H]3C(=O)O)c2ccccc2)c(=O)n1-c1ccc(N)cc1` [Example 7, 6β-[D2,-(2-Ethyl-3-methyl-1-(4-aminophenyl)-3-pyrazolin-5-one-4-carbonylamino)-2-phenyl]acetamido penicillanic acid (sodium salt)], the MIC worked out at 50 µg/mL.

The assay is the same for the next values; noted with them: Escherichia coli, NCTC10418; E. coli NCTC 10418; unit as printed in Example 1; read-out: MIC against E. coli NCTC 10418.
For the compound `Cc1c(C(=O)N[C@@H](C(=O)N[C@@H]2C(=O)N3[C@@H]2SC(C)(C)[C@@H]3C(=O)O)c2ccccc2)c(=O)n(-c2ccccc2)n1C` [Example 1, 6β-[D,2-(2,3-dimethyl-1-phenyl-3-pyrazolin-5-one-4-carbonylamino)-2-phenyl]acetamido penicillanic acid, sodium salt], the MIC stood at 5 µg/mL.

Still in this assay, the particulars now being: Escherichia coli, NCTC10418; read-out: MIC against E. coli NCTC 10418.
As for `Cn1cc(C(=O)N[C@@H](C(=O)N[C@@H]2C(=O)N3[C@@H]2SC(C)(C)[C@@H]3C(=O)O)c2ccccc2)c(=O)n1Cc1ccccc1` [Example 9, 6β-[D,2-(1-Benzyl-2-methyl-3-pyrazolin-5-one-4-carbonylamino)-2-phenyl]acetamido penicillanic acid (sodium salt)], the MIC was 5 µg/mL. Regarding `COc1nn(-c2ccc(N)cc2)cc1C(=O)N[C@@H](C(=O)N[C@@H]1C(=O)N2[C@@H]1SC(C)(C)[C@@H]2C(=O)O)c1ccccc1` [Example 22, 6β-[D,2-([1H]-1-(4-Aminophenyl)-3-methoxypyrazole-4-carbonylamino)-2-phenyl]acetamido penicillanic acid, sodium salt], the MIC is 16 µg/mL. On the same count and under the same terms, the result for `CCn1c(C)c(C(=O)N[C@@H](C(=O)N[C@@H]2C(=O)N3[C@@H]2SC(C)(C)[C@@H]3C(=O)O)c2ccccc2)c(=O)n1-c1ccc([N+](=O)[O-])cc1` [Example 6, 6β-[D,2-(2-Ethyl-3-methyl-1-(4-nitrophenyl)-3-pyrazolin-5-one-4-carbonylamino)-2-phenyl]acetamido penicillanic acid] reads 25 µg/mL (≈ 40.2 µM); that for `CC1(C)S[C@@H]2[C@H](NC(=O)[C@H](NC(=O)c3cn(-c4ccc([N+](=O)[O-])cc4)[nH]c3=O)c3ccccc3)C(=O)N2[C@H]1C(=O)O` [Example 11, 6β-[D,2-(2-(4-Nitrophenyl)-3-pyrazolin-5-one-4-carbonylamino)-2-phenyl] acetamido penicillanic acid (sodium salt)], 2.5 µg/mL.

Take `CC(=O)OCC1=C(C(=O)O)N2C(=O)[C@@H](NC(=O)[C@H](NC(=O)c3cn(-c4ccc([N+](=O)[O-])cc4)[nH]c3=O)c3ccccc3)[C@H]2SC1` [Example 18, 7β-[D,2-(2-p-Nitrophenyl-3-pyrazolin-5-one-4-carbonyl-amino)-2-phenyl]acetamido-3-acetoxymethylceph-3-em-4-carboxylic acid, sodium salt]: the MIC stood at 1 µg/mL. Same read-out and setting: the result for `COc1c(C(=O)N[C@@H](C(=O)N[C@@H]2C(=O)N3[C@@H]2SC(C)(C)[C@@H]3C(=O)O)c2ccccc2)cnn1-c1ccccc1` [Example 5, 6β-[D,2-(2H,3-Methoxy-2-phenyl-pyrazole-4-carbonylamino)-2-phenyl]acetamido penicillanic acid, sodium salt] reads 12.5 µg/mL; that for `Cc1ccc(-n2cc(C(=O)N[C@@H](C(=O)N[C@@H]3C(=O)N4[C@@H]3SC(C)(C)[C@@H]4C(=O)O)c3ccccc3)c(=O)[nH]2)cc1` [Example 23, 6β-[D,2-(2-[4-Methylphenyl]pyrazol-3-in-5-one-4-carbonylamino)-2-phenyl] acetamido penicillanic acid, sodium salt], 10 µg/mL; that for `CC1(C)S[C@@H]2[C@H](NC(=O)[C@H](NC(=O)c3cn(-c4ccc(N)cc4)[nH]c3=O)c3ccc(O)cc3)C(=O)N2[C@H]1C(=O)O` [Example 14, 6β-[D,2-(2-(4-Aminophenyl)-3-pyrazolin-5-one-4-carbonylamino)-2-(4-hydroxyphenyl)] acetamido penicillanic acid (sodium salt)], 2.5 µg/mL. Take `Cc1c(C(=O)N[C@@H](C(=O)N[C@@H]2C(=O)N3[C@@H]2SC(C)(C)[C@@H]3C(=O)O)c2ccccc2)c(=O)n(-c2ccc(Br)cc2)n1C` [Example 10, 6β-[D,2-(2,3-Dimethyl-1-(4-bromophenyl)-3-pyrazolin-5-one-4-carbonylamino)-2-phenyl]acetamido penicillanic acid (sodium salt)]: the MIC was 5 µg/mL. With `CC1(C)S[C@@H]2[C@H](NC(=O)[C@H](NC(=O)c3cn(-c4ccc(Br)cc4)[nH]c3=O)c3ccccc3)C(=O)N2[C@H]1C(=O)O` [Example 17, 6β-[D,2-(2-p-Bromophenyl-3-pyrazolin-5-one-4-carbonylamino)-2-phenyl]acetamido penicillanic acid, sodium salt], the MIC came out at 1 µg/mL. Still for that read-out and setting: the result for `CC1(C)S[C@@H]2[C@H](NC(=O)[C@H](NC(=O)c3cn(-c4ccc([N+](=O)[O-])cc4)[nH]c3=O)c3ccc(O)cc3)C(=O)N2[C@H]1C(=O)O` [Example 13, 6β-[D,2-(2-(4-Nitrophenyl)-3-pyrazolin-5-one-4-carbonylamino)-2-(4-hydroxyphenyl)] acetamido penicillanic acid (sodium salt)] reads 5 µg/mL; that for `CC1(C)S[C@@H]2[C@H](NC(=O)[C@H](NC(=O)c3cn(-c4ccccc4)[nH]c3=O)c3ccccc3)C(=O)N2[C@H]1C(=O)O` [Example 3, 6β-[D,2-(2-phenyl-3-pyrazolin-5-one-4-carbonylamino)-2-phenyl]acetamido penicillanic acid, sodium salt], 2.5 µg/mL; that for `Cc1c(C(=O)N[C@@H](C(=O)N[C@@H]2C(=O)N3[C@@H]2SC(C)(C)[C@@H]3C(=O)O)c2ccc(O)cc2)c(=O)n(-c2ccccc2)n1C` [Example 2, 6β-[D,2-(2,3-dimethyl-1-phenyl-3-pyrazolin-5-one-4-carbonylamino)-2-(4-hydroxyphenyl)]acetamido penicillanic acid, sodium salt], 12.5 µg/mL.

For `COc1nn(-c2ccc([N+](=O)[O-])cc2)cc1C(=O)N[C@@H](C(=O)N[C@@H]1C(=O)N2[C@@H]1SC(C)(C)[C@@H]2C(=O)O)c1ccccc1` [Example 21, 6-β-[D,2-([1H]-3-Methoxy-1-[4-nitrophenyl]pyrazole-4-carbonylamino)-2-phenyl]acetamido penicillanic acid, sodium salt], the MIC amounted to 8 µg/mL. The same measure, in the same setting: with `CC(=O)OCC1=C(C(=O)O)N2C(=O)[C@@H](NC(=O)[C@H](NC(=O)c3cn(-c4ccc(N)cc4)[nH]c3=O)c3ccccc3)[C@H]2SC1` [Example 19, 7β-[D,2-(2-p-Aminophenyl-3-pyrazolin-5-one-4-carbonylamino)-2-phenyl]acetamido-3-acetoxymethylceph-3-em-4-carboxylic acid, sodium salt] the figure was 5 µg/mL. In the case of `Cc1c(C(=O)N[C@@H](C(=O)N[C@@H]2C(=O)N3[C@@H]2SC(C)(C)[C@@H]3C(=O)O)c2ccccc2)c(=O)[nH]n1-c1ccccc1` [Example 16, 6β-[D,2-(3-Methyl-2-phenyl-3-pyrazolin-5-one-4-carbonyl-amino)-2-phenyl]acetamido penicillanic acid, sodium salt], the MIC was found to be 25 µg/mL. Turning to `CC1(C)S[C@@H]2[C@H](NC(=O)[C@H](NC(=O)c3cn(-c4ccc(N)cc4)[nH]c3=O)c3ccccc3)C(=O)N2[C@H]1C(=O)O` [Example 12, 6β-[D,2-(2-(4-Aminophenyl)-3-pyrazolin-5-one-4-carbonylamino)-2-phenyl] acetamido penicillanic acid (sodium salt)], the MIC was found to be 5 µg/mL.

As for `Cn1cc(C(=O)N[C@@H](C(=O)N[C@@H]2C(=O)N3[C@@H]2SC(C)(C)[C@@H]3C(=O)O)c2ccccc2)c(=O)n1-c1ccccc1` [Example 8, 6β-[D,2-(2-Methyl-1-phenyl-3-pyrazolin-5-one-4-carbonylamino)-2-phenyl]acetamido penicillanic acid (sodium salt)], the MIC was determined as 10 µg/mL. On the same count and under the same terms, the result for `COc1ccc(-n2cc(C(=O)N[C@@H](C(=O)N[C@@H]3C(=O)N4[C@@H]3SC(C)(C)[C@@H]4C(=O)O)c3ccccc3)c(=O)[nH]2)cc1` [Example 20, 6β-[D,2-(2-[4-Methoxyphenyl]-pyrazol-3-in-5-one-4-carbonylamino)-2-phenyl]acetamido penicillanic acid, sodium salt] reads 0.25 µg/mL; that for `CC1(C)S[C@@H]2[C@H](NC(=O)[C@H](NC(=O)c3cnn(-c4ccccc4)c3O)c3ccccc3)C(=O)N2[C@H]1C(=O)O` [Example 4, 6β-[D,2-(2H,3-Hydroxy-2-phenylpyrazole-4-carbonylamino)-2-phenyl]acetamido penicillanic acid (sodium salt)], 2 µg/mL. As for `CC1(C)S[C@@H]2[C@H](NC(=O)[C@H](NC(=O)c3cn(-c4ccc(O)cc4)[nH]c3=O)c3ccccc3)C(=O)N2[C@H]1C(=O)O` [Example 15, 6β-[D,2-(2-(4-Hydroxyphenyl)-3-pyrazolin-5-one-4-carbonylamino)-2-phenyl] acetamido penicillanic acid (sodium salt)], the MIC is 2 µg/mL.
